Test results as given in PMC6312923 (Life Science Alliance, 2018).

B1: Cdt2^PIP-3A: Cdt2 with I709, Y712, and F713 all mutated to alanine (protein, UniProt Q9NZJ0 1-730, looked up, variant I709A Y712A F713A)
Denticleless protein homolog: MLFNSVLRQPQLGVLRNGWSSQYPLQSLLTGYQCSGNDEHTSYGETGVPVPPFGCTFSSAPNMEHVLAVANEEGFVRLYNTESQSFRKKCFKEWMAHWNAVFDLAWVPGELKLVTAAGDQTAKFWDVKAGELIGTCKGHQCSLKSVAFSKFEKAVFCTGGRDGNIMVWDTRCNKKDGFYRQVNQISGAHNTSDKQTPSKPKKKQNSKGLAPSVDFQQSVTVVLFQDENTLVSAGAVDGIIKVWDLRKNYTAYRQEPIASKSFLYPGSSTRKLGYSSLILDSTGSTLFANCTDDNIYMFNMTGLKTSPVAIFNGHQNSTFYVKSSLSPDDQFLVSGSSDEAAYIWKVSTPWQPPTVLLGHSQEVTSVCWCPSDFTKIATCSDDNTLKIWRLNRGLEEKPGGDKLSTVGWASQKKKESRPGLVTVTSSQSTPAKAPRAKCNPSNSSPSSAACAPSCAGDLPLPSNTPTFSIKTSPAKARSPINRRGSVSSVSPKPPSSFKMSIRNWVTRTPSSSPPITPPASETKIMSPRKALIPVSQKSSQAEACSESRNRVKRRLDSSCLESVKQKCVKSCNCVTELDGQVENLHLDLCCLAGNQEDLSKDSLGPTKSSKIEGAGTSISEPPSPISPYASESCGTLPLPLRPCGEGSEMVGKENSSPENKNWLLAMAAKRKAENPSPRSPSSQTPNSRRQSGKKLPSPVTITPSSMRKACTAAHRKSQEDFCGPEHSTEL
modifications: FLAG tag
notes: Cdt2 with I709, Y712, and F713 all mutated to alanine

Columns and labels:
Format in all cases: cell-based, human
[1] = test system: UV-C–damaged sites in MCF7 cells; assay: FRAP of GFP-tagged proteins at sites of local UV-C damage in MCF7 cells
Procedure: (C) MCF7 cells were transfected with the indicated GFP-tagged plasmids and 24 h later they were locally UV-C irradiated (50 J/m^2). 20 min following irradiation, FRAP experiments were conducted at the site of damage and in untreated cells (Fig S1). FRAP data were analysed with easyFRAP. Mean normalized fluorescence intensities at the site of damage as a function of time following photobleaching are shown. (D) MCF7 cells were synchronized in the S phase by treatment with 2-mM thymidine for 24 h. Upon release, cells were transfected with siCdt1 or control siLuc in parallel with a plasmid expressing GFP-tagged Cdt2. Cells were then synchronised in the M phase by treatment with 50 ng/ml nocodazole for 12 h, released into G1 for 5 h, and locally UV-C irradiated (50 J/m^2). 20 min after irradiation, the cells were analysed by FRAP. Mean normalized fluorescence recovery curves at the sites of damage are shown.
To perform micropore UV irradiation, cells were cultured on cover slips, washed twice with PBS, and subsequently covered with an isopore polycarbonate membrane filter (Millipore) with a pore size of either 3 or 5 μm in diameter, and irradiated. UV irradiation was achieved using a UV lamp (SUV-16, As One, Japan) with a dose rate of 0.4 J/m^2·s, which was monitored with a UV radiometer (UVX Radiometer, UVP) at 254 nm, or with a UV box equipped with a UV-C lamp monitored with a VLX-3W radiometer (Vilber Lourmat) at 254 nm (CX-254 sensor). The filter was removed and cells were either fixed or cultured for the indicated time before fixation, and processed for immunofluorescence. For FRAP analysis, cells were cultured for 20 min to allow recruitment to sites of damage before photobleaching.
Cells (HeLa or MCF7) were plated on 35-mm glass-bottom dishes in phenol-red–free medium (Invitrogen). […] A Leica TCS SP5 microscope equipped with a 63x magnification 1.4 NA oil-immersion lens and FRAP booster were used. During FRAP, cells were maintained at 37°C and 5% CO2. A defined circular region of interest with 2 μm diameter (ROI1) was placed in the nucleus and at the recruitment sites. GFP was excited using a 488-nm argon laser line. 50 pre-bleach images were acquired with 3% of the 488-nm line at 60% argon laser intensity, followed by a single bleach pulse on ROI1 using 476-nm and 488-nm laser lines combined at maximum power. In this manner, at least 60% of the fluorescence in ROI1 was bleached successfully. Next, 400 post-bleach images with a 0.052 s interval were recorded. Mean intensities of ROI1, the whole nucleus (ROI2) and an area outside of the nucleus (ROI3) were quantified and exported as .csv format files.

[2] = test system: U2OS cells; assay: Nuclear enlargement / re-replication in U2OS cells; details: siCdt2 72 h
Procedure: Next, we examined Cdt1 degradation after the onset of the S phase in the Cdt2^PIP-3A-expressing cells. Cyclin A is present in the S and G2 phase, when Cdt1 should be degraded. Thus, Cdt1 should be present in cells that are negative for cyclin A, and absent in cells that are positive for cyclin A ([Nishitani et al, 2006]; [Xouri et al., 2007a], [2007b]). Cdt1 degradation after the onset of the S phase is carried out by two ubiquitin ligases, CRL1^Skp2 and CRL4^Cdt2. We depleted the substrate recognition subunits, Cdt2 and/or Skp2, by siRNA, and the percentage of Cdt1 positive cells among cyclin A–positive cells was assessed by immunofluorescence. In control siRNA-transfected U2OS cells, ∼2% of cyclin A–positive cells stained positive for Cdt1. […]
Figure 8. […] The frequency of Cdt1-positive (+) cells among cyclin A–positive (+) cells was calculated (n = 3). […] (D) Cells treated with siCdt2 or control siLuc were measured for their nuclear size (n = 200 for each), and are shown in a scatter plot. […]
Double-stranded RNAs were transfected at 100 nM using Oligofectamine (Invitrogen) or HiPerFect (QIAGEN). […] For Cdt1 silencing in Fig 1A and B, unsychronized HeLa cells were transfected twice with 200 nM of Cdt1 siRNA or control luciferase siRNA using Lipofectamine 2000 with a time interval of 24 h and were analysed 48 h after the second transfection. […]

[3] = test system: Cdt1 and p21 poly-ubiquitination; assay: Poly-ubiquitination of Cdt1 and p21 in U2OS cells; details: U2OS stable cells, MG132 3 h
Procedure: (§1) To consider this possibility, asynchronously growing control HEK293 cells and cells expressing Cdt2^WT or Cdt2^PIP-3A were treated with proteasome inhibitor MG132 and the levels of poly-ubiquitinated Cdt1 were examined. […] Cdt2^PIP-3A-expressing cells however had reduced level of both poly-ubiquitinated Cdt1 and p21 on chromatin.
(§2) Figure S7. Cdt2 PIP box is important for CRL4^Cdt2 activity in U2OS cells. (A) U2OS stable cells expressing Cdt2^WT or Cdt2^PIP-3A. U2OS cells were transfected with expression vectors for Cdt2^WT-FLAG or Cdt2^PIP-3A-FLAG, and isolated stable clones were verified by immunofluorescent analysis and Western blot analysis. Frequency of expressing cells for each construct was shown (%). (B) Poly-ubiquitination assay with U2OS stable cells. U2OS cells and Cdt2^WT-3FLAG or Cdt2^PIP-3A-3FLAG expressing stable U2OS cells were treated with MG132 for 3 h or not (−), and whole-cell extracts were prepared for Western blotting. (C) Cells were transfected with siCdt2 or control siLuc for 72 h, irradiated with UV (+, 5 J/m^2) or not (−), and collected 1h later for Western blotting. Relative levels of Cdt1 were shown, UV (−) level set as 1.0 (average of two independent experiments).

[4] = test system: PCNA mono-ubiquitination; assay: Mono-ubiquitination of PCNA; details: in comparison with Cdt2^wt-expressing cells, Fig S7B
Excerpt: as §2

[5] = test system: p21 poly-ubiquitination; assay: Poly-ubiquitination of p21 in HEK293 cells; details: HEK293, MG132 3 h, chromatin fraction
Procedure: (§3) Figure 6. The Cdt2 PIP box is important for its recruitment to DNA damage sites and replication foci and for poly-ubiquitination activity. (A) HEK293 and stable Cdt2^WT or Cdt2^PIP-3A cells were locally UV irradiated, and stained for XPA and FLAG (Cdt2). XPA-positive spots were examined for FLAG signal, and its frequency was counted (%). More than 50 spots were examined. bar:10 μm. […] Bar: 10 μm. […] (D) Whole-cell extracts were prepared from HEK293 and stably transfected cells of Cdt2^WT or Cdt2^PIP-3A cells, separated into soluble (Sup) and chromatin-containing insoluble (Ppt) fractions, and were examined for indicated proteins. The asterisk indicates nonspecific bands. (E) HEK293 and stably transfected cells of Cdt2^WT or Cdt2^PIP-3A were treated with MG132 for 3 h. Whole-cell extracts (WCE) were prepared, separated into soluble (Sup) and insoluble (Ppt) fractions, and blotted with the indicated antibodies.
as §1

[6] = test system: Cdt2 poly-ubiquitination; assay: Poly-ubiquitination of Cdt2 itself on chromatin in HEK293 cells; details: HEK293, MG132 3 h
Procedure: as §3, §1

[7] = GFP-tagged, site of UV-C damage (50 J/m^2), 20 min after irradiation

| Molecule | half-recovery time [1, 7] [s] | immobile fraction [1, 7] [%] | FRAP binding kinetics at damage sites after Cdt1 depletion ([1]; MCF7 synchronized in G1, siCdt1 versus siLuc, Fig 1D) | enlarged nuclei (re-replication) phenotype [2] | poly-ubiquitination of Cdt1 and p21 [3] | mUb-PCNA level [4] | poly-ubiquitinated p21 on chromatin [5] | poly-ubiquitination of Cdt2 on chromatin [6] |
| --- | --- | --- | --- | --- | --- | --- | --- | --- |
| Cdt2: Cdt2 tagged with GFP, transiently expressed in MCF7 cells | 0.83 | 16 | remain the same despite the absence of Cdt1 | rescued | Increased levels |  |  |  |
| B1 |  |  |  |  |  | decreased | reduced level | severely reduced |
